# According to ChEMBL document CHEMBL1201862, “PubChem BioAssay data set” (2004):
#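 The compound was tested at five concentrations on cells cultured in 96-well plates, with a 48-hour exposure period. The concentration for 50% growth inhibition is given as GI50.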 Activity calls are given as the source filed them. Rule as the data show it: active = GI50 up to about 1.1 µM and inactive = higher.
# Tests used:
# Experiment in all cases: NCI anticancer screen, dose series, 48 h
# [1] = system: HCT-15
# [2] = system: U-251
# [3] = system: PC-3
# [4] = system: MOLT-4
# [5] = system: SNB-19
# [6] = system: Malme-3M
# [7] = system: HL-60
# [8] = system: SN12C
# [9] = system: BT-549
# [10] = system: UACC-257
# [11] = system: CAKI-1
# [12] = system: KM12
# [13] = system: SF-539
# [14] = system: UO-31
# [15] = system: IGROV-1
# [16] = system: HCC 2998
# [17] = system: NCI-H23
# [18] = system: NCI/ADR-RES
# [19] = system: LOX IMVI
# [20] = system: MCF7
Compound,GI50 [1],GI50 [2],GI50 [3],GI50 [4],GI50 [5],GI50 [6],GI50 [7],GI50 [8],GI50 [9],GI50 [10],GI50 [11],GI50 [12],GI50 [13],GI50 [14],GI50 [15],GI50 [16],GI50 [17],GI50 [18],GI50 [19],GI50 [20]
[N-]=[N+]=Nc1c(-c2ccccc2)c(Cl)nc2ccccc12,28.4 µM,48 µM (inactive),26.2 µM (inactive),51.4 µM (inactive),29.9 µM (inactive),34.8 µM (inactive),56.2 µM (inactive),32.5 µM (inactive),23.2 µM (inactive),25.5 µM (inactive),31.8 µM (inactive),19.1 µM (inactive),43.8 µM (inactive),15.5 µM (inactive),39.5 µM (inactive),44.2 µM (inactive),33.5 µM (inactive),34.8 µM (inactive),20.6 µM (inactive),
NS(=O)(=O)c1nnc(NC(=O)CCC(=O)O)s1,> 100 µM,> 100 µM (inactive),,> 100 µM (inactive),> 100 µM (inactive),> 100 µM (inactive),> 100 µM (inactive),> 100 µM (inactive),> 100 µM (inactive),> 100 µM (inactive),> 100 µM (inactive),> 100 µM (inactive),> 100 µM (inactive),> 100 µM (inactive),,> 100 µM (inactive),> 100 µM (inactive),> 100 µM (inactive),> 100 µM (inactive),> 100 µM (inactive)
CCCN(CCC)C1CCc2c(ccc3cc[nH]c23)C1 (configuration not stated),48.1 µM,> 100 µM (inactive),35 µM (inactive),25.2 µM (inactive),> 100 µM (inactive),58.1 µM (inactive),,> 100 µM (inactive),> 100 µM (inactive),26.7 µM (inactive),> 100 µM (inactive),60.4 µM (inactive),> 100 µM (inactive),49 µM (inactive),62.7 µM (inactive),23 µM (inactive),> 100 µM (inactive),> 100 µM (inactive),,77.3 µM (inactive)
CC(NC1=NCCO1)c1ccccc1Cl (configuration not stated),> 100 µM,> 100 µM (inactive),91 µM (inactive),91.8 µM (inactive),> 100 µM (inactive),> 100 µM (inactive),> 100 µM (inactive),> 100 µM (inactive),,> 100 µM (inactive),> 100 µM (inactive),> 100 µM (inactive),27.2 µM (inactive),> 100 µM (inactive),> 100 µM (inactive),> 100 µM (inactive),> 100 µM (inactive),> 100 µM (inactive),> 100 µM (inactive),> 100 µM (inactive)
Cc1ccc(S(=O)(=O)N[C@H](C(=O)O)c2ccccc2)cc1,> 100 µM,> 100 µM (inactive),,58.6 µM (inactive),> 100 µM (inactive),> 100 µM (inactive),> 100 µM (inactive),> 100 µM (inactive),,> 100 µM (inactive),> 100 µM (inactive),> 100 µM (inactive),> 100 µM (inactive),> 100 µM (inactive),> 100 µM (inactive),> 100 µM (inactive),> 100 µM (inactive),,> 100 µM (inactive),
O=P1(Oc2ccccc2)NCc2ncccc2O1 (configuration not stated),> 100 µM,> 100 µM (inactive),> 100 µM (inactive),> 100 µM (inactive),> 100 µM (inactive),,,> 100 µM (inactive),> 100 µM (inactive),> 100 µM (inactive),> 100 µM (inactive),> 100 µM (inactive),> 100 µM (inactive),> 100 µM (inactive),> 100 µM (inactive),> 100 µM (inactive),> 100 µM (inactive),> 100 µM (inactive),> 100 µM (inactive),> 100 µM (inactive)
CC(C)Cc1ccc(C(C)/C=C2\CCC(CN3CCCCC3)C2=O)cc1 (configuration not stated),2.75 µM,2.14 µM (inactive),6.31 µM (inactive),1.63 µM (inactive),12 µM (inactive),16.6 µM (inactive),1.12 µM (inactive),2.12 µM (inactive),18.5 µM (inactive),12.7 µM (inactive),6.87 µM (inactive),2.56 µM (inactive),4.54 µM (inactive),10.6 µM (inactive),4.25 µM (inactive),6.37 µM (inactive),7.29 µM (inactive),,2.01 µM (inactive),1.64 µM (inactive)
OC1(c2cc3ccccc3s2)CCCCC1,39.1 µM,49.5 µM (inactive),,25.8 µM (inactive),82.4 µM (inactive),,37.7 µM (inactive),30.9 µM (inactive),55.7 µM (inactive),32.6 µM (inactive),> 100 µM (inactive),41.3 µM (inactive),> 100 µM (inactive),51.1 µM (inactive),87.5 µM (inactive),76 µM (inactive),46.6 µM (inactive),47.2 µM (inactive),45.8 µM (inactive),36.6 µM (inactive)
CC(C)=CCN(N=O)c1ncnc2[nH]cnc12,,,94.6 µM (inactive),> 100 µM (inactive),> 100 µM (inactive),> 100 µM (inactive),> 100 µM (inactive),> 100 µM (inactive),,> 100 µM (inactive),> 100 µM (inactive),> 100 µM (inactive),> 100 µM (inactive),> 100 µM (inactive),> 100 µM (inactive),> 100 µM (inactive),> 100 µM (inactive),> 100 µM (inactive),92.5 µM (inactive),> 100 µM (inactive)
CC1=C(/C(C)=N/NS(=O)(=O)c2ccc(C)cc2)Sc2ccccc2N1,> 100 µM,47.9 µM (inactive),,52.7 µM (inactive),> 100 µM (inactive),77.3 µM (inactive),39.4 µM (inactive),> 100 µM (inactive),,65.5 µM (inactive),> 100 µM (inactive),> 100 µM (inactive),> 100 µM (inactive),57 µM (inactive),> 100 µM (inactive),> 100 µM (inactive),89.3 µM (inactive),,70.8 µM (inactive),
CC1=NN(c2cccc(Cl)c2)C2(C1=Cc1ccc(N(C)C)cc1)C(Cl)C(=O)N2c1nc2ccccc2s1 (configuration not stated),77.4 µM,53.7 µM (inactive),> 100 µM (inactive),74 µM (inactive),,,> 100 µM (inactive),,,> 100 µM (inactive),72.9 µM (inactive),3.95 µM (inactive),49.1 µM (inactive),> 100 µM (inactive),40.7 µM (inactive),17.8 µM (inactive),45.5 µM (inactive),63.5 µM (inactive),> 100 µM (inactive),70.5 µM (inactive)
CC1C(c2ccc(F)cc2)c2cc3c(cc2OC1N1CCCC1)OCO3 (configuration not stated),34.4 µM,,44.2 µM (inactive),,29.1 µM (inactive),,,80.4 µM (inactive),,55.1 µM (inactive),16.7 µM (inactive),42.5 µM (inactive),30.4 µM (inactive),23.2 µM (inactive),42.2 µM (inactive),38.6 µM (inactive),64.9 µM (inactive),43.6 µM (inactive),83.8 µM (inactive),45.4 µM (inactive)
S=C1/C(=N/c2ccccc2)N(c2ccccc2)/C(=N\c2cccc[n+]2Cc2ccccc2)N1c1ccccc1,21.4 µM,> 10 µM (inactive),12.1 µM (inactive),8.79 µM (inactive),15.4 µM (inactive),14.4 µM (inactive),,21 µM (inactive),14.3 µM (inactive),17.3 µM (inactive),18.9 µM (inactive),16.6 µM (inactive),16.3 µM (inactive),16.4 µM (inactive),22.5 µM (inactive),13.9 µM (inactive),19 µM (inactive),39.9 µM (inactive),,18.9 µM (inactive)
COc1ccc2[nH]c3c(c2c1)CCc1c(OC)cccc1-3,> 100 µM,28.8 µM (inactive),> 100 µM (inactive),29.9 µM (inactive),> 100 µM (inactive),75.2 µM (inactive),,> 100 µM (inactive),> 100 µM (inactive),> 100 µM (inactive),> 100 µM (inactive),> 100 µM (inactive),,> 100 µM (inactive),> 100 µM (inactive),> 100 µM (inactive),> 100 µM (inactive),> 100 µM (inactive),> 100 µM (inactive),> 100 µM (inactive)
COc1cc2c(c(OC)c1OC)-c1c(cc3c(c1OC)OCO3)CC(C)C(C)(O)C2OC(=O)c1ccccc1 (configuration not stated),33.2 µM,39.9 µM (inactive),26.6 µM (inactive),5.58 µM (inactive),37.8 µM (inactive),45.5 µM (inactive),19.5 µM (inactive),40.5 µM (inactive),56.1 µM (inactive),44.9 µM (inactive),33 µM (inactive),41.1 µM (inactive),> 100 µM (inactive),21.1 µM (inactive),38.3 µM (inactive),22.9 µM (inactive),45.4 µM (inactive),,31.2 µM (inactive),44.9 µM (inactive)
CCn1c(=O)c2c3ccc(OC(C)=O)cc3[nH]c2c2ccc(OC(C)=O)cc21,62.2 µM,37.2 µM (inactive),26.9 µM (inactive),17.6 µM (inactive),50.5 µM (inactive),32.2 µM (inactive),,32.7 µM (inactive),72.3 µM (inactive),42.1 µM (inactive),61.5 µM (inactive),34.7 µM (inactive),39 µM (inactive),44.1 µM (inactive),53.1 µM (inactive),23.7 µM (inactive),40.3 µM (inactive),> 100 µM (inactive),,23.1 µM (inactive)
